Here are results for twelve compounds from ChEMBL document CHEMBL5131519, “Conversion of a False Virtual Screen Hit into Selective JAK2 JH2 Domain Binders Using Convergent Design Strategies” (ACS Med Chem Lett, 2022).

A word on the pKd: it is the Kd on a negative log10 scale, so that one unit is a factor of ten. What is called Papp is a coefficient for how fast a substance crosses the barrier.

The target in data set [1] is T1, Tyrosine-protein kinase JAK2 (Homo sapiens, UniProt O60674). Nature of the data set: Binding affinity to wild type JAK2 JH2 pseudokinase domain (unknown origin) expressed in Sf9 cells at 50 uM and measured upto 30 mins competitive fluorescence polarization assay. (In general: Polarisation of emitted light reports the rotation of a fluorescent probe.)
Data set [2] addresses T1, Tyrosine-protein kinase JAK2. As to the kind of experiment: Binding affinity to wild type JAK2 JH2 pseudokinase domain (unknown origin) expressed in Sf9 cells and measured upto 30 mins by competitive fluorescence polarization assay.
For data set [3], the target named is Tyrosine-protein kinase JAK2 (Homo sapiens, UniProt O60674, V617F). Nature of the data set: Binding affinity to wild type JAK2 JH2 pseudokinase domain (unknown origin) V617F mutant expressed in Sf9 cells and measured upto 30 mins by competitive fluorescence polarization assay.
Data set [4] can be described thus: Binding affinity to wild type JAK2 JH1 catalytic domain (unknown origin) expressed in Sf9 cells and measured upto 30 mins by competitive fluorescence polarization assay. Further details: species or system Homo sapiens.
A short description of data set [5]: in vitro. As to conditions: PAMPA, pH 7.4. Further details: dose or concentration left out as unconfirmed.
Description: Permeability of compound in PBS buffer at pH 7.4 at 500 mM incubated for 18 hrs by UV plate reader based PAMPA assay

pKd: −log10 of the molar value.

T1 sequence (O60674 whole entry, the tested form may be a part): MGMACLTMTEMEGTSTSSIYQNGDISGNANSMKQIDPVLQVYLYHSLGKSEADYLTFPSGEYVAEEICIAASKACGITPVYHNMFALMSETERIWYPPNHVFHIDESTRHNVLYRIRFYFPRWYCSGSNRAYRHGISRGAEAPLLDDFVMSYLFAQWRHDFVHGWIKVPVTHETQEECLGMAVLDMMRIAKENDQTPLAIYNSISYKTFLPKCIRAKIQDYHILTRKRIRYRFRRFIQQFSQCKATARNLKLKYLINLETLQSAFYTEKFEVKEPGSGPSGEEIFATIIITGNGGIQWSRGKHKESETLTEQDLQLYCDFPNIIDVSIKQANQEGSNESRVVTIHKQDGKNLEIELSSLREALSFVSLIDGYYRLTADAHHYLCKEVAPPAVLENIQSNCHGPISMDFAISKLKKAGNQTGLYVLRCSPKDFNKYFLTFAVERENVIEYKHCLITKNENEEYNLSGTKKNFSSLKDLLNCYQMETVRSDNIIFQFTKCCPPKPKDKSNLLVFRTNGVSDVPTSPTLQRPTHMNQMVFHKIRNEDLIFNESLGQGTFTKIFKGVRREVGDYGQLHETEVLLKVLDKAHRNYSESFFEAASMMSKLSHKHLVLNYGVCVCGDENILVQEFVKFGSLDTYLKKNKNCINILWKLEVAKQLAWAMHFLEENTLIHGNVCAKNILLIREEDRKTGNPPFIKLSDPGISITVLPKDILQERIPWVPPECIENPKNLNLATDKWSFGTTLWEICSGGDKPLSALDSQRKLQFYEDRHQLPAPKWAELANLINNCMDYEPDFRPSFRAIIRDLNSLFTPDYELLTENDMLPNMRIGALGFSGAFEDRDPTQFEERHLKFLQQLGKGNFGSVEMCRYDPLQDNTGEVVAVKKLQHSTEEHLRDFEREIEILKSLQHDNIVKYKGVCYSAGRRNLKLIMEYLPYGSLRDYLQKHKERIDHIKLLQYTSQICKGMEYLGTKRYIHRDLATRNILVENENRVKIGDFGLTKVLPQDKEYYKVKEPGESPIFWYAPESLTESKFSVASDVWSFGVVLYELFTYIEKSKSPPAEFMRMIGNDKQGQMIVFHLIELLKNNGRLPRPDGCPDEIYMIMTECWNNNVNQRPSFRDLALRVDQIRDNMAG
Chain of Tyrosine-protein kinase JAK2 (Homo sapiens, UniProt O60674, V617F) (O60674 whole entry V617F, the tested form may be a part): as the sequence (O60674 whole entry, the tested form may be a part) above, with V617F counted along it

For `Nc1nc(Oc2ccc(NS(=O)(=O)CCC(=O)O)cc2)c2cc[nH]c2n1`, in data set [1], the Activity amounted to 18%.

In data set [1], `Nc1nc(Oc2ccc(NC(=O)NCCC(=O)O)cc2)c2cc[nH]c2n1` gave an Activity of 30%.

As for `Nc1nc(-c2ccc(S(=O)(=O)CCC(=O)O)cc2)c2cc[nH]c2n1`, in data set [1], the Activity is 4%.

In turn, `Nc1nc(Oc2ccc(NC(=O)CCCC(=O)O)cc2)c2cc[nH]c2n1` gave an Activity in data set [1] of 27%.

For the compound `Nc1nc(Oc2ccc(NC(=O)N[C@@H](COCc3ccccc3)C(=O)O)cc2)c2cc[nH]c2n1`, the pKd in data set [2] is 6.23.

Consider `Nc1nc(Oc2ccc(NC(=O)N[C@@H](CCCc3ccccc3)C(=O)O)cc2)c2cc[nH]c2n1`, for which the negative-log Kd (pKd) in data set [2] is 6.23.

`Nc1nc(Oc2ccc(NC(=O)N[C@H](CCc3ccccc3)C(=O)O)cc2)c2cc[nH]c2n1` gave an Activity in data set [1] of 46%.

In the case of `Nc1nc(Oc2ccc(NC(=O)N[C@@H](Cc3ccccc3)C(=O)O)cc2)c2cc[nH]c2n1`, in data set [2], the negative-log Kd (pKd) is 5.65.

On to `Nc1nc(Oc2ccc(NC(=O)CCC(=O)O)cc2)c2cc[nH]c2n1`, for which, in data set [2], the negative-log Kd (pKd) is 4.73.

On to `Nc1nc(Oc2ccc(NC(=O)N[C@@H](CCc3ccccc3)C(=O)O)cc2)c2cc[nH]c2n1`, for which the pKd in data set [2] is 6.49; in data set [3] it was 6.75; in data set [4], 4.44.

As for `O=C(N[C@H](CO)[C@H](O)c1ccc([N+](=O)[O-])cc1)C(Cl)Cl` [CHLORAMPHENICOL], the apparent permeability (Papp) at 18 h in data set [5] was 4.53 ×10⁻⁶ cm/s.

`Nc1nc(Oc2ccc(NC(=O)N[C@H](Cc3ccccc3)C(=O)O)cc2)c2cc[nH]c2n1`: the pKd in data set [2] is 5.00.
